What follows are compounds tested against T1, ligand binding domain of human RORγ (A262-S507) (Homo sapiens, UniProt P51449) (assay: General RORγ SPA binding assay (competition with [3H]25-hydroxycholesterol)). Details: RORγ SPA binding assay, inhibition of [3H]25-hydroxycholesterol binding; read-out: IC50.
T1 construct: made in house; host or cells: E. coli
T1 sequence (P51449 262-507): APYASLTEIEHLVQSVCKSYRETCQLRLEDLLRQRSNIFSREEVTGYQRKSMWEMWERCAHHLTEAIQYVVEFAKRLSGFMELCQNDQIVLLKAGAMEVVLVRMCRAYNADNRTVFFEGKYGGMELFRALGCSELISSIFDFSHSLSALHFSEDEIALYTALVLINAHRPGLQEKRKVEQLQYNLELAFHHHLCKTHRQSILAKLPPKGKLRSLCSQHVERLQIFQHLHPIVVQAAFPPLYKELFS
Summary of the method: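 Scintillation counts from copper His-tag SPA beads (4 mg/mL, 30 min) gave percent inhibition of radioligand binding, from which IC50 values are derived. The E. coli-expressed His-tagged domain (50 nM) is first exposed to compound for 15 min at room temperature in PBS containing 0.5% fatty acid free BSA.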

`Cc1ncc(/C(=N/Oc2ccnc(C(F)(F)F)c2)C(F)F)c(C2CCN(C(=O)Cc3c(F)cccc3F)CC2)n1` [Compound B32, (1Z)-1-(4-{1-[(2,6-Difluorophenyl)acetyl]piperidin-4-yl}-2-methylpyrimidin-5-yl)-2,2-difluoroethanone O-[2-(trifluoromethyl)pyridin-4-yl]oxime] and `C/C(=N\Oc1ccnc(C(F)(F)F)c1)c1cnc(C)nc1C1CCN(C(=O)Cc2c(F)cccc2F)CC1(F)F` (centres unmarked) [Compound B34, (E)-1-(3,3-Difluoro-4-(2-methyl-5-(1-(2-(trifluoromethyl)pyridin-4-yloxyimino)ethyl)pyrimidin-4-yl)piperidin-1-yl)-2-(2,6-difluorophenyl)ethanone] are within 1.5-fold of each other in IC50: 15.3 nM for the first, 12.5 nM for the second.

First: Cc1ncc(/C=N/Oc2cccc(C(F)(F)F)c2)c(C2CCN(C(=O)Cc3c(F)cccc3F)CC2(F)F)n1 (centres unmarked) [Compound B33, (E)-4-(1-(2-(2,6-Difluorophenyl)acetyl)-3,3-difluoropiperidin-4-yl)-2-methylpyrimidine-5-carbaldehyde O-3-(trifluoromethyl)phenyl oxime]
Second: Cc1ncc(/C(CF)=N/Oc2ccnc(C(F)(F)F)n2)c(C2CCN(C(=O)Cc3c(F)cccc3F)CC2(F)F)n1 (centres unmarked) [Compound B35, (Z)-1-(3,3-Difluoro-4-(5-(2-fluoro-1-(2-(trifluoromethyl)pyrimidin-4-yloxyimino)ethyl)-2-methylpyrimidin-4-yl)piperidin-1-yl)-2-(2,6-difluorophenyl)ethanone]
The IC50 of the first is 2.6-fold higher: 36.7 nM for the first, 14.2 nM for the second. The second is the more potent here.

Going from `C/C(=N\Oc1ccnc(C(F)(F)F)n1)c1cnc(C)nc1C1CCN(C(=O)Nc2c(F)cccc2F)CC1` [Compound B36, N-(2,6-Difluorophenyl)-4-{2-methyl-5-[(1E)-N-{[2-(trifluoromethyl)pyrimidin-4-yl]oxy}ethanimidoyl]pyrimidin-4-yl}piperidine-1-carboxamide] to `C/C(=N\Oc1ccnc(C(F)(F)F)n1)c1cnc(C)nc1C1CCN(C(=O)Nc2c(F)cccc2C(F)(F)F)CC1` [Compound B39, N-[2-Fluoro-6-(trifluoromethyl)phenyl]-4-{2-methyl-5-[(1E)-N-{[2-(trifluoromethyl)pyrimidin-4-yl]oxy}ethanimidoyl]pyrimidin-4-yl}piperidine-1-carboxamide], the IC50 falls from 158 nM to 93.3 nM (1.7-fold). The second is the more potent here.

Compared with `C/C(=N\Oc1ccnc(C(F)(F)F)c1)c1cnc(C)nc1C1CCN(C(=O)Nc2c(F)cccc2F)CC1` [Compound B37, N-(2,6-Difluorophenyl)-4-{2-methyl-5-[(1E)-N-{[2-(trifluoromethyl)pyridin-4-yl]oxy}ethanimidoyl]pyrimidin-4-yl}piperidine-1-carboxamide], `C/C(=N\Oc1cc(Cl)nc(C(F)(F)F)c1)c1cnc(C)nc1C1CCN(C(=O)Nc2c(F)cccc2F)CC1` [Compound B40, 4-{5-[(1E)-N-{[2-chloro-6-(trifluoromethyl)pyridin-4-yl]oxy}ethanimidoyl]-2-methylpyrimidin-4-yl}-N-(2,6-difluorophenyl)piperidine-1-carboxamide] is 3.2-fold lower in IC50: 67.6 nM for the first, 21.4 nM for the second. The second is the more potent here.

First: C/C(=N\Oc1cccc(C(F)(F)F)n1)c1cnc(C)nc1C1CCN(C(=O)Nc2c(F)cccc2F)CC1 [Compound B38, N-(2,6-Difluorophenyl)-4-{2-methyl-5-[(1E)-N-{[6-(trifluoromethyl)pyridin-2-yl]oxy}ethanimidoyl]pyrimidin-4-yl}piperidine-1-carboxamide]
Second: C/C(=N\Oc1cccc(C(F)(F)F)c1)c1cnc(C)nc1C1CCN(C(=O)Nc2c(F)cccc2F)CC1 [Compound B43, N-(2,6-Difluorophenyl)-4-{2-methyl-5-[(1E)-N-{[3-(trifluoromethyl)phenyl]oxy}ethanimidoyl]pyrimidin-4-yl}piperidine-1-carboxamide]
The IC50 of the first is 13-fold higher: 169 nM for the first, 13.5 nM for the second. The second is the more potent here.

Compared with `C/C(=N/Oc1cc(Cl)nc(C(F)(F)F)c1)c1cnc(C)nc1C1CCN(C(=O)Nc2c(F)cccc2F)CC1` [Compound B41, 4-{5-[(1Z)—N-{[2-chloro-6-(trifluoromethyl)pyridin-4-yl]oxy}ethanimidoyl]-2-methylpyrimidin-4-yl}-N-(2,6-difluorophenyl)piperidine-1-carboxamide], `C/C(=N/Oc1cccc(C(F)(F)F)c1)c1cnc(C)nc1C1CCN(C(=O)Nc2c(F)cccc2F)CC1` [Compound B44, N-(2,6-Difluorophenyl)-4-{2-methyl-5-[(1Z)—N-{[3-(trifluoromethyl)phenyl]oxy}ethanimidoyl]pyrimidin-4-yl}piperidine-1-carboxamide] is 6.7-fold higher in IC50: 12.6 nM for the first, 84.9 nM for the second.

Going from `C/C(=N\Oc1cc(C)nc(C(F)(F)F)n1)c1cnc(C)nc1C1CCN(C(=O)Nc2c(F)cccc2F)CC1` [Compound B42, N-(2,6-difluorophenyl)-4-{2-methyl-5-[(1E)-N-{[6-methyl-2-(trifluoromethyl)pyrimidin-4-yl]oxy}ethanimidoyl]pyrimidin-4-yl}piperidine-1-carboxamide] to `C/C(=N\Oc1cccc(C(F)(F)F)c1)c1cnc(N)nc1C1CCN(C(=O)Nc2c(F)cccc2F)CC1` [Compound B51, 4-{2-Amino-5-[(1E)-N-{[3-(trifluoromethyl)phenyl]oxy}ethanimidoyl]pyrimidin-4-yl}-N-(2,6-difluorophenyl)piperidine-1-carboxamide], the IC50 falls from 151 nM to 8.6 nM (18-fold).

Going from `C/C(=N\Oc1cccc(C(F)(F)F)c1)c1cnc(C)nc1C1CCN(C(=O)Nc2c(F)cccc2C(F)(F)F)CC1` [Compound B45, N-[2-fluoro-6-(trifluoromethyl)phenyl]-4-{2-methyl-5-[(1E)-N-{[3-(trifluoromethyl)phenyl]oxy}ethanimidoyl]pyrimidin-4-yl}piperidine-1-carboxamide] to `CSc1ncc(/C(C)=N/Oc2cccc(C(F)(F)F)c2)c(C2CCN(C(=O)Nc3c(F)cccc3F)CC2)n1` [Compound B50, N-(2,6-Difluorophenyl)-4-{2-(methylthio)-5-[(1E)-N-{[3-(trifluoromethyl)phenyl]oxy}ethanimidoyl]pyrimidin-4-yl}piperidine-1-carboxamide], the IC50 rises from 8 nM to 445 nM (56-fold). The first is the more potent here.

Going from `Cc1nc(C)c(/C=N/Oc2cccc(C(F)(F)F)c2)c(C2CCN(C(=O)Nc3c(F)cccc3F)CC2)n1` [Compound B46, N-(2,6-Difluorophenyl)-4-{2,6-dimethyl-5-[(E)-({[3-(trifluoromethyl)phenyl]oxy}imino)methyl]pyrimidin-4-yl}piperidine-1-carboxamide] to `CCC/C(=N\Oc1cccc(C(F)(F)F)c1)c1c(C)nc(C)nc1C1CCN(C(=O)Cc2c(F)cccc2F)CC1` [Compound B48, (1E)-1-(4-{1-[(2,6-difluorophenyl)acetyl]piperidin-4-yl}-2,6-dimethylpyrimidin-5-yl)butan-1-one O-[3-(trifluoromethyl)phenyl]oxime], the IC50 rises from 106 nM to 241 nM (2.3-fold). The first is the more potent here.

Compared with `C/C(=N\Oc1cccc(C(F)(F)F)c1)c1cnc(C)nc1C1CCN(C(=O)Nc2c(F)cccc2F)C(C)C1` (centres unmarked) [Compound B47, N-(2,6-Difluorophenyl)-2-methyl-4-{2-methyl-5-[(1E)-N-{[3-(trifluoromethyl)phenyl]oxy}ethanimidoyl]pyrimidin-4-yl}piperidine-1-carboxamide], `CCC/C(=N/Oc1cccc(C(F)(F)F)c1)c1c(C)nc(C)nc1C1CCN(C(=O)Cc2c(F)cccc2F)CC1` [Compound B49, (1Z)-1-(4-{1-[(2,6-difluorophenyl)acetyl]piperidin-4-yl}-2,6-dimethylpyrimidin-5-yl)butan-1-one O-[3-(trifluoromethyl)phenyl]oxime] is 26-fold higher in IC50: 76.4 nM for the first, 1970 nM for the second. The first is the more potent here.

— patent publication US10035790B2, “RORγ modulators” (BRISTOL-MYERS SQUIBB COMPANY, priority 2012, dated 2018)
